Test results as given in patent publication US7189691B2, “Methods and compositions for treating leukemia” (The Administrators of the Tulane Educational Fund, priority 2004, dated 2007).
“Also recorded” adds a separate entry of the source.

Tests used:
[1] = target: T1, mBCoR binding to AF9 (Homo sapiens, UniProt P42568); assay: GST pull-down assay, GST-mBCoR(925-1759) and biotinylated AF9; set-up: species or system murine; conditions: 25 μg/ml
T1 construct: made in house; host or cells: GST-mBCoR from E. coli; AF9 by coupled in vitro transcription/translation (Promega)
T1 sequence (P42568 211-568): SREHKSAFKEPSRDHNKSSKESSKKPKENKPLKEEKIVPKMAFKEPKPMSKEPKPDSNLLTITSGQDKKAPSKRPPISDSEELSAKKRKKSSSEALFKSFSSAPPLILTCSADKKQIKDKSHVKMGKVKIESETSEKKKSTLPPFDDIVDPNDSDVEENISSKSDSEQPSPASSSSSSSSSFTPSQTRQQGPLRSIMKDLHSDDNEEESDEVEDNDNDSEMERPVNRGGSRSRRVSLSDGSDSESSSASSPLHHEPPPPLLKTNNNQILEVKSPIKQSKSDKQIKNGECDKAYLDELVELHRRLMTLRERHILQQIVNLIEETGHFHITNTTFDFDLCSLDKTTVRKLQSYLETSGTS
Procedure: (§1) To determine if the synthetic peptide could disrupt the AF4-AF9 interaction in vitro, and to determine if the peptide disrupted other binding events with AF9, the following assay was performed. In additional to AF4, the carboxy-terminus of AF9 binds at least two other proteins, the Polycomb protein MPc3 and mBCoR, the mouse homolog of the human BCL-6 corepressor protein (Srinivasan 2003 and Hemenway 2001, both cited above). Using a yeast three hybrid assay similar to that described in Example 1, it was previously shown that mBCoR and FMR2 (an AF4 homolog) can simultaneously bind AF9. […] The sequences of human AF4 and AF9 and murine MPc3 and BCoR can be found in the NCBI database under Accession Nos. P51825, P42568, Q9QXV1, and AAN85318, respectively, incorporated by reference herein.
(§2) Recombinant proteins consisting of glutathione-S-transferase (GST) fused to either (a) amino acids 749–775 of human AF4 SEQ ID NO: 107, (b) amino acids 202–362 of MPc3 SEQ ID NO: 108 or (c) amino acids 925–1759 of mBCoR SEQ ID NO: 109 were isolated from E. coli. These fusion proteins were immobilized on 50 μl glutathione agarose matrix. […]
(§3) After extensive washing with TBST, proteins were resolved by SDS-PAGE and transferred to nitrocellulose. […] Alkaline phosphatase activity was measured by determining the optical density of the samples at 405 nm with a plate spectrophotometer. […]

[2] = system: RS4;11 leukemia cell line; assay: MTT viability assay and growth curve (Trypan Blue exclusion); assay type: cell-based; conditions: 100 μg/ml, 72 h
Procedure: (§4) All cell lines were maintained in RPMI 1640+10% FCS. 100 μl aliquots of cell suspension (5×10^5 cells/ml) were cultured in flat-bottomed 96 well plates in the presence of different concentrations of peptides. After 72 h incubation at 37° C. in humidified air containing 5% CO2, viable cell number was determined by MTT assay as follows: 10 μl of 3-[4,5-dimethylthiazol-2-yl]-2,5-diphenyl tetrazolium bromide (MTT) (5 mg/ml concentration) (Sigma) was added to each well and incubated further for 6 h. Formazan crystals that are formed during incubation were dissolved in 100 μl of acidified isopropanol. The optical density at 550 nm (which is linearly related to the number of viable cells) was measured using a plate spectrophotometer. Growth characteristics of the leukemia cell lines were also determined for cells by Trypan Blue exclusion.

[3] = target: T2, MPc3 binding to AF9 (Homo sapiens, UniProt P42568); assay: GST pull-down assay, GST-MPc3(202-362) and biotinylated AF9; set-up: species or system murine; conditions: 25 μg/ml
T2 construct: made in house; host or cells: GST-MPc3 from E. coli; AF9 by coupled in vitro transcription/translation (Promega)
T2 sequence (P42568 211-568): T1 sequence (P42568 211-568)
Procedure: as §1, §2, §3

[4] = system: Raji lymphoma cell line; assay: Proliferation test; assay type: cell-based; conditions: data not shown
[5] = system: THP-1 leukemia cell line; assay: MTT viability assay; assay type: cell-based; conditions: 72 h, varying concentrations
Procedure: as §4

[6] = system: Reh B-precursor leukemia cell line; assay: MTT viability assay; assay type: cell-based; conditions: 72 h
Procedure: as §4

[7] = system: B1 leukemia cell line; assay: MTT viability assay; assay type: cell-based; conditions: 72 h, differing concentrations
Procedure: as §4

[8] = system: MOLT-4 T-cell leukemia line; assay: MTT viability assay; assay type: cell-based; conditions: 72 h, up to 200 μg/ml
Procedure: as §4

[9] = system: MV4-11 leukemia cell line; assay: MTT viability assay; assay type: cell-based; conditions: 72 h, differing concentrations
Procedure: as §4

[10] = system: NIH 373 cell line; assay: Proliferation test; assay type: cell-based; conditions: data not shown

`CC[C@H](C)[C@H](NC(=O)[C@H](CCCCN)NC(=O)[C@@H](NC(=O)[C@H](Cc1c[nH]c2ccccc12)NC(=O)[C@H](CC(C)C)NC(=O)[C@H](CCCCN)NC(=O)[C@H](CCCCN)NC(=O)[C@H](Cc1c[nH]c2ccccc12)NC(=O)[C@H](CCCCN)NC(=O)[C@H](CCSC)NC(=O)[C@H](CCCNC(=N)N)NC(=O)[C@H](CCCNC(=N)N)NC(=O)[C@H](CC(N)=O)NC(=O)[C@H](CCC(N)=O)NC(=O)[C@H](Cc1ccccc1)NC(=O)[C@H](Cc1c[nH]c2ccccc12)NC(=O)[C@H](CCCCN)NC(=O)[C@@H](NC(=O)[C@H](CCC(N)=O)NC(=O)[C@@H](N)CCCNC(=N)N)[C@@H](C)CC)C(C)C)C(=O)N[C@@H](CC(=O)O)C(=O)N[C@@H](CC(C)C)C(=O)N[C@@H](CC(=O)O)C(=O)N[C@@H](CC(C)C)C(=O)N[C@@H](CC(C)C)C(=O)N[C@@H](CO)C(=O)N[C@@H](CCCNC(=N)N)C(=O)N[C@H](C(=O)N1CCC[C@H]1C(=O)O)C(C)C` [PFWT] was tested, and the “displacement of mBCoR from AF9” value [1] was “not displaced”, the proliferation / viability [2] was “completely inhibits proliferation” and the “displacement of MPc3 from AF9” value [3] was “not displaced”. The proliferation [4] was “not affect the proliferation”, the cell viability [5] was “inhibited to a much lesser extent; also recorded: not significantly inhibited” and the cell viability [6] was “inhibited”. For the same compound, the cell viability [7] was “diminished; also recorded: inhibits”, the cell viability [8] was “not affected” and the cell viability [9] was “diminished; also recorded: inhibits”. The proliferation [10] was “not affect the proliferation”.
